{"source": "ChEMBL document CHEMBL1649532", "about": "“Trypanocidal activity of 8-methyl-5'-{[(Z)-4-aminobut-2-enyl]-(methylamino)}adenosine (Genz-644131), an adenosylmethionine decarboxylase inhibitor” (Antimicrob Agents Chemother, 2009)", "key": {"[1]": {"system": "Trypanosoma brucei rhodesiense", "assay": "Trypanocidal activity against Trypanosoma brucei rhodesiense KETRI1992 infected in mouse assessed as average survival time at 50 mg/kg, ip QD administered 24 hrs postinfection", "type": "functional", "conditions": "route intraperitoneal"}, "[2]": {"system": "Trypanosoma brucei brucei", "assay": "Trypanocidal activity against Trypanosoma brucei brucei EATRO infected in mouse assessed as mean survival time at 5 mg/kg, ip QD for 4 days", "type": "functional", "conditions": "route intraperitoneal"}, "[3]": {"system": "Trypanosoma brucei brucei", "assay": "Trypanocidal activity against Trypanosoma brucei brucei EATRO infected in mouse assessed as protection against trypanosomal infection at 10 mg/kg, ip QD for 4 days", "type": "functional, organism-based", "set-up": "dose 10 mg/kg"}, "[4]": {"system": "Trypanosoma brucei brucei", "assay": "Trypanocidal activity against Trypanosoma brucei brucei 667 infected in mouse assessed as average day of relapse of trypanosomal infection at 50 mg/kg, ip BID for 14 days", "type": "functional", "conditions": "route intraperitoneal"}, "[5]": {"system": "Trypanosoma brucei rhodesiense", "assay": "Trypanocidal activity against Trypanosoma brucei rhodesiense KETRI2002 infected in mouse assessed as average survival time at 25 mg/kg, ip BID administered 24 hrs postinfection", "type": "functional", "conditions": "route intraperitoneal"}, "[6]": {"system": "Trypanosoma brucei brucei", "assay": "Trypanocidal activity against Trypanosoma brucei brucei EATRO infected in mouse assessed as protection against trypanosomal infection at 2.5 mg/kg, ip BID for 4 days", "type": "functional, organism-based", "set-up": "dose 2.5 mg/kg"}, "[7]": {"system": "Trypanosoma brucei rhodesiense", "assay": "Trypanocidal activity against Trypanosoma brucei rhodesiense KETRI2002 infected in mouse assessed as average survival time at 50 mg/kg, ip BID administered 24 hrs postinfection", "type": "functional", "conditions": "route intraperitoneal"}, "[8]": {"system": "Trypanosoma brucei brucei", "assay": "Trypanocidal activity against Trypanosoma brucei brucei EATRO infected in mouse assessed as mean survival time at 50 mg/kg, ip QD for 4 days", "type": "functional", "conditions": "route intraperitoneal"}, "[9]": {"system": "Trypanosoma brucei rhodesiense", "assay": "Trypanocidal activity against Trypanosoma brucei rhodesiense KETRI243 infected in mouse assessed as protection against trypanosomal infection at 25 mg/kg, ip QD administered 24 hrs postinfection", "type": "functional, organism-based", "set-up": "dose 25 mg/kg"}, "[10]": {"system": "Trypanosoma brucei rhodesiense", "assay": "Trypanocidal activity against Trypanosoma brucei rhodesiense KETRI243 infected in mouse assessed as average survival time at 10 mg/kg, ip QD administered 24 hrs postinfection", "type": "functional", "conditions": "route intraperitoneal"}, "[11]": {"system": "Trypanosoma brucei brucei", "assay": "Trypanocidal activity against Trypanosoma brucei brucei EATRO infected in mouse assessed as protection against trypanosomal infection at 25 mg/kg, ip BID for 4 days", "type": "functional, organism-based", "set-up": "dose 25 mg/kg"}, "[12]": {"system": "Trypanosoma brucei brucei", "assay": "Trypanocidal activity against Trypanosoma brucei brucei EATRO infected in mouse assessed as mean survival time at 25 mg/kg, ip BID for 4 days", "type": "functional", "conditions": "route intraperitoneal"}, "[13]": {"system": "Trypanosoma brucei brucei", "assay": "Trypanocidal activity against Trypanosoma brucei brucei EATRO infected in mouse assessed as protection against trypanosomal infection at 50 mg/kg, ip QD for 4 days", "type": "functional, organism-based", "set-up": "dose 50 mg/kg"}, "[14]": {"system": "Trypanosoma brucei brucei", "assay": "Trypanocidal activity against Trypanosoma brucei brucei 667 infected in mouse assessed as average day of relapse of trypanosomal infection at 100 mg/kg, ip BID for 14 days", "type": "functional", "conditions": "route intraperitoneal"}, "[15]": {"system": "Trypanosoma brucei brucei", "assay": "Trypanocidal activity against Trypanosoma brucei brucei EATRO infected in mouse assessed as mean survival time at 1 mg/kg, ip QD for 4 days", "type": "functional", "conditions": "route intraperitoneal"}, "[16]": {"system": "Trypanosoma brucei rhodesiense", "assay": "Trypanocidal activity against Trypanosoma brucei rhodesiense KETRI243 infected in mouse assessed as average survival time at 25 mg/kg, ip BID administered 24 hrs postinfection", "type": "functional", "conditions": "route intraperitoneal"}, "[17]": {"system": "Trypanosoma brucei brucei", "assay": "Trypanocidal activity against Trypanosoma brucei brucei EATRO infected in mouse assessed as mean survival time at 2.5 mg/kg, ip BID for 4 days", "type": "functional", "conditions": "route intraperitoneal"}, "[18]": {"system": "Trypanosoma brucei rhodesiense", "assay": "Trypanocidal activity against Trypanosoma brucei rhodesiense KETRI1992 infected in mouse assessed as protection against trypanosomal infection at 25 mg/kg, ip QD administered 24 hrs postinfection", "type": "functional, organism-based", "set-up": "dose 25 mg/kg"}, "[19]": {"system": "Trypanosoma brucei rhodesiense", "assay": "Trypanocidal activity against Trypanosoma brucei rhodesiense KETRI2002 infected in mouse assessed as cure rate at 10 mg/kg, ip BID administered 24 hrs postinfection", "type": "functional", "conditions": "route intraperitoneal"}, "[20]": {"system": "Trypanosoma brucei brucei", "assay": "Trypanocidal activity against Trypanosoma brucei brucei EATRO after 48 hrs", "type": "functional, organism-based"}, "[21]": {"system": "Trypanosoma brucei rhodesiense", "assay": "Trypanocidal activity against Trypanosoma brucei rhodesiense KETRI2002 infected in mouse assessed as cure rate at 50 mg/kg, ip QD administered 24 hrs postinfection", "type": "functional", "conditions": "route intraperitoneal"}, "[22]": {"system": "Trypanosoma brucei brucei", "assay": "Trypanocidal activity against Trypanosoma brucei brucei 667 infected in mouse assessed as average day of relapse of trypanosomal infection at 10 mg/kg, ip BID for 21 days", "type": "functional", "conditions": "route intraperitoneal"}, "[23]": {"system": "Trypanosoma brucei rhodesiense", "assay": "Trypanocidal activity against Trypanosoma brucei rhodesiense KETRI2002 infected in mouse assessed as protection against trypanosomal infection at 10 mg/kg, ip QD administered 24 hrs postinfection", "type": "functional, organism-based", "set-up": "dose 10 mg/kg"}, "[24]": {"system": "Trypanosoma brucei rhodesiense", "assay": "Ratio of Kinact to Kiapp for Trypanosoma brucei rhodesiense AdoMetDC"}, "[25]": {"system": "Trypanosoma brucei rhodesiense", "assay": "Trypanocidal activity against Trypanosoma brucei rhodesiense KETRI2002 infected in mouse assessed as average survival time at 10 mg/kg, ip QD administered 24 hrs postinfection", "type": "functional", "conditions": "route intraperitoneal"}, "[26]": {"system": "Trypanosoma brucei rhodesiense", "assay": "Trypanocidal activity against Trypanosoma brucei rhodesiense KETRI2002 infected in mouse assessed as average survival time at 50 mg/kg, ip QD administered 24 hrs postinfection", "type": "functional", "conditions": "route intraperitoneal"}, "[27]": {"system": "Trypanosoma brucei rhodesiense", "assay": "Trypanocidal activity against Trypanosoma brucei rhodesiense KETRI243 infected in mouse assessed as average survival time at 25 mg/kg, ip QD administered 24 hrs postinfection", "type": "functional", "conditions": "route intraperitoneal"}, "[28]": {"system": "Trypanosoma brucei brucei", "assay": "Trypanocidal activity against Trypanosoma brucei brucei EATRO infected in mouse assessed as mean survival time at 2.5 mg/kg, ip QD for 4 days", "type": "functional", "conditions": "route intraperitoneal"}, "[29]": {"system": "Trypanosoma brucei brucei", "assay": "Trypanocidal activity against Trypanosoma brucei brucei EATRO infected in mouse assessed as protection against trypanosomal infection at 5 mg/kg, ip BID for 4 days", "type": "functional, organism-based", "set-up": "dose 5 mg/kg"}, "[30]": {"system": "Trypanosoma brucei rhodesiense", "assay": "Trypanocidal activity against Trypanosoma brucei rhodesiense KETRI1992 infected in mouse assessed as cure rate at 25 mg/kg, ip BID administered 24 hrs postinfection", "type": "functional", "conditions": "route intraperitoneal"}, "[31]": {"system": "Trypanosoma brucei brucei", "assay": "Trypanocidal activity against Trypanosoma brucei brucei EATRO infected in mouse assessed as mean survival time at 2 mg/kg, ip QD for 4 days", "type": "functional", "conditions": "route intraperitoneal"}, "[32]": {"system": "Trypanosoma brucei brucei", "assay": "Trypanocidal activity against Trypanosoma brucei brucei 667 infected in mouse assessed as average day of relapse of trypanosomal infection at 50 mg/kg, ip BID for 7 days", "type": "functional", "conditions": "route intraperitoneal"}, "[33]": {"system": "Trypanosoma brucei brucei", "assay": "Trypanocidal activity against Trypanosoma brucei brucei EATRO infected in mouse assessed as protection against trypanosomal infection at 50 mg/kg, ip BID for 4 days", "type": "functional, organism-based", "set-up": "dose 50 mg/kg"}, "[34]": {"system": "Trypanosoma brucei rhodesiense", "assay": "Trypanocidal activity against Trypanosoma brucei rhodesiense KETRI1992 infected in mouse assessed as cure rate at 50 mg/kg, ip BID administered 24 hrs postinfection", "type": "functional", "conditions": "route intraperitoneal"}, "[35]": {"system": "Trypanosoma brucei rhodesiense", "assay": "Trypanocidal activity against Trypanosoma brucei rhodesiense KETRI1992 infected in mouse assessed as protection against trypanosomal infection at 50 mg/kg, ip QD administered 24 hrs postinfection", "type": "functional, organism-based", "set-up": "dose 50 mg/kg"}, "[36]": {"system": "Trypanosoma brucei rhodesiense", "assay": "Trypanocidal activity against Trypanosoma brucei rhodesiense KETRI1992 infected in mouse assessed as protection against trypanosomal infection at 50 mg/kg, ip BID administered 24 hrs postinfection", "type": "functional, organism-based", "set-up": "dose 50 mg/kg"}, "[37]": {"system": "Trypanosoma brucei rhodesiense", "assay": "Trypanocidal activity against Trypanosoma brucei rhodesiense KETRI1992 infected in mouse assessed as average survival time at 25 mg/kg, ip BID administered 24 hrs postinfection", "type": "functional", "conditions": "route intraperitoneal"}, "[38]": {"system": "Trypanosoma brucei brucei", "assay": "Trypanocidal activity against Trypanosoma brucei brucei EATRO infected in mouse assessed as mean survival time at 25 mg/kg, ip QD for 4 days", "type": "functional", "conditions": "route intraperitoneal"}, "[39]": {"system": "Trypanosoma brucei brucei", "assay": "Trypanocidal activity against Trypanosoma brucei brucei 667 infected in mouse assessed as average day of relapse of trypanosomal infection at 25 mg/kg, ip BID for 7 days", "type": "functional", "conditions": "route intraperitoneal"}}, "note": "Activity calls are given as the source filed them. The rule behind the calls is not given here."}
{"smiles": "Cc1nc2c(N)ncnc2n1[C@@H]1O[C@H](CN(C)C/C=C\\CN)[C@@H](O)[C@H]1O", "values": [{"measurement": "MST", "setting": "[1]", "value": 20.2, "unit": "days"}, {"measurement": "MST", "setting": "[2]", "value": ">35", "unit": "days"}, {"measurement": "Activity", "setting": "[3]", "value": "Active"}, {"measurement": "MST", "setting": "[4]", "value": 63.4, "unit": "days"}, {"measurement": "MST", "setting": "[5]", "value": 19.3, "unit": "days"}, {"measurement": "Activity", "setting": "[6]", "value": "Active"}, {"measurement": "MST", "setting": "[7]", "value": 22, "unit": "days"}, {"measurement": "MST", "setting": "[8]", "value": ">35", "unit": "days"}, {"measurement": "Activity", "setting": "[9]", "value": "inactive"}, {"measurement": "MST", "setting": "[10]", "value": 13.2, "unit": "days"}, {"measurement": "Activity", "setting": "[11]", "value": "Active"}, {"measurement": "MST", "setting": "[12]", "value": ">35", "unit": "days"}, {"measurement": "Activity", "setting": "[13]", "value": "Active"}, {"measurement": "MST", "setting": "[14]", "value": 72, "unit": "days"}, {"measurement": "MST", "setting": "[15]", "value": 13.5, "unit": "days"}, {"measurement": "MST", "setting": "[16]", "value": 18.75, "unit": "days"}, {"measurement": "MST", "setting": "[17]", "value": ">35", "unit": "days"}, {"measurement": "Activity", "setting": "[18]", "value": "inactive"}, {"measurement": "Activity", "setting": "[19]", "value": 60, "unit": "%"}, {"measurement": "IC50", "setting": "[20]", "value": 0.58, "unit": "ng/mL"}, {"measurement": "Activity", "setting": "[21]", "value": 80, "unit": "%"}, {"measurement": "MST", "setting": "[22]", "value": 61.8, "unit": "days"}, {"measurement": "Activity", "setting": "[23]", "value": "inactive"}, {"measurement": "Activity", "setting": "[24]", "value": 7.8, "unit": "min⁻¹ M⁻¹"}, {"measurement": "MST", "setting": "[25]", "value": 16, "unit": "days"}, {"measurement": "MST", "setting": "[26]", "value": 21, "unit": "days"}, {"measurement": "MST", "setting": "[27]", "value": 14, "unit": "days"}, {"measurement": "MST", "setting": "[28]", "value": 21, "unit": "days"}, {"measurement": "Activity", "setting": "[29]", "value": "Active"}, {"measurement": "Activity", "setting": "[30]", "value": 60, "unit": "%"}, {"measurement": "MST", "setting": "[31]", "value": ">35", "unit": "days"}, {"measurement": "MST", "setting": "[32]", "value": 59, "unit": "days"}, {"measurement": "Activity", "setting": "[33]", "value": "Active"}, {"measurement": "Activity", "setting": "[34]", "value": 100, "unit": "%"}, {"measurement": "Activity", "setting": "[35]", "value": "inactive"}, {"measurement": "Activity", "setting": "[36]", "value": "inactive"}, {"measurement": "MST", "setting": "[37]", "value": 23, "unit": "days"}, {"measurement": "MST", "setting": "[38]", "value": ">35", "unit": "days"}, {"measurement": "MST", "setting": "[39]", "value": 61.7, "unit": "days"}]}
